In BindingDB's records for patent US11839613 (Idorsia Pharmaceuticals, 2023):

Assays:
[1] = biological target: Prostaglandin E2 receptor EP2 subtype (Homo sapiens, UniProt P43116); test: hEP2 cAMP Assay
Procedure: Cells are counted washed and resuspended in assay buffer (AB; HBSS, 20 mM HEPES, 0.2% BSA; 2 mM IBMX). […] Plate is pre-incubated 45 minutes at RT. […] Plate is incubated 30 minutes at RT.

[2] = biological target: Prostaglandin E2 receptor EP4 subtype (Homo sapiens, UniProt P35408); test: hEP4 cAMP Assay
Prostaglandin E2 receptor EP4 subtype, sequence (P35408 whole entry): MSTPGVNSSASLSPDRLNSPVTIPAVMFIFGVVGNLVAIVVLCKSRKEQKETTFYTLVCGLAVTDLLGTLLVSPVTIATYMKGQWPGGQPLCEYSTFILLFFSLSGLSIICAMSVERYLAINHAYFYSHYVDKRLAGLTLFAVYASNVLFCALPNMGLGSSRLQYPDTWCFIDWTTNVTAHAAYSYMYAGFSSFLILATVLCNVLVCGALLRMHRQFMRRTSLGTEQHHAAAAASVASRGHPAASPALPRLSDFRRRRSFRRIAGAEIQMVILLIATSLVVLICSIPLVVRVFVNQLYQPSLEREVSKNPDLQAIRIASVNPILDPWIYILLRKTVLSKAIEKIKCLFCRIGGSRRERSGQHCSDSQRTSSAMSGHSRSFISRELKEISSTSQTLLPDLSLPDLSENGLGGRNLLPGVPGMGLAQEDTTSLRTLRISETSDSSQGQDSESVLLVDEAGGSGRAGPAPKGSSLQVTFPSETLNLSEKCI
Procedure: Cells are counted washed and resuspended in assay buffer (AB; HBSS, 20 mM HEPES, 0.2% BSA; 2 mM IBMX). […] Plate is pre-incubated 45 minutes at RT. Subsequently, 2.5 microliters of PGE2 (final conc. 6 nM) are transferred into the assay plate. Plate is incubated 30 minutes at RT. […] For each compound concentration the percentage of cAMP compared to DMSO control value as average ±STDEV (each concentration is measured in duplicate) is calculated.

Prostaglandin E2 receptor EP2 subtype, sequence (P43116 whole entry): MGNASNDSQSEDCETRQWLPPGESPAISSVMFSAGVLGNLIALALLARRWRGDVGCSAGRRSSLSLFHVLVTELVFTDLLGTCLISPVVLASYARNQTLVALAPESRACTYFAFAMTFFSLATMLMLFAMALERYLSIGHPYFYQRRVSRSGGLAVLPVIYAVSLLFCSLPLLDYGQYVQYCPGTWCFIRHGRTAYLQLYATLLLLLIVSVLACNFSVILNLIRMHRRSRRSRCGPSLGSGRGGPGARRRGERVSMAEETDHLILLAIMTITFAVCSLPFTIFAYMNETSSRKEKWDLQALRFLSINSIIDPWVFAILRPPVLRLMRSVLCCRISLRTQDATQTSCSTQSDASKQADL

With `O=C(O)c1ccc(-c2cc(NCCc3ccc4sccc4c3F)ncn2)cc1OC1CCC1` [US11839613, Example 366] the IC50 [1] was 30 nM and the IC50 [2] was 47 nM.

In the case of `CCOc1cc(-c2cc(NCCc3cc4ccsc4c(F)c3OC)ncn2)ccc1CC(=O)O` [US11839613, Example 406], the IC50 [1] is reported as 220 nM and the IC50 [2] is reported as 101 nM.

`CC(C)Cc1cc(-c2cc(NCCc3ccc4sccc4c3F)ncn2)ccc1C(=O)O` [US11839613, Example 413] was tested, and the IC50 [1] was 119 nM and the IC50 [2] was 38 nM.

Work on `CCOc1cc2c(cc1CCNc1cc(-c3ccc(CC(=O)O)c(CC(C)C)c3)ncn1)OCCO2` [US11839613, Example 412] yielded an IC50 [1] of 57 nM and an IC50 [2] of 79 nM.

Compound `O=C(O)c1ccc(-c2cc(NCCc3ccc4scc(Cl)c4c3)ncn2)cc1OC1CCC1` [US11839613, Example 430] has an IC50 [1] of 185 nM and an IC50 [2] of 40 nM.

`CCOc1cc(-c2cc(NCCc3ccc4sccc4c3F)ncn2)ccc1CC(=O)O` [US11839613, Example 368] gave an IC50 [1] of 119 nM and an IC50 [2] of 37 nM.

In the case of `CCCc1cc(-c2cc(NCCc3ccc4sccc4c3F)ncn2)ccc1C(C)C(=O)O` (racemic) [US11839613, Example 482], the IC50 [2] is reported as 323 nM.

`COc1cc2c(cc1CCNc1cc(-c3ccc(CC(=O)O)c(OC(F)(F)F)c3)ncn1)OCCO2` [US11839613, Example 450] gave an IC50 [1] of 165 nM and an IC50 [2] of 80 nM.

Work on `CCOc1cc(-c2cc(NCCc3cc4ccsc4cc3OC)ncn2)cc(F)c1CC(=O)O` [US11839613, Example 371] yielded an IC50 [1] of 48 nM and an IC50 [2] of 68 nM.

In the case of `CCOc1cc(-c2cc(NCCc3ccc4sccc4c3F)ncn2)sc1C(=O)O` [US11839613, Example 367], the IC50 [1] is reported as 6 nM and the IC50 [2] is reported as 1 nM.

For `CCCOc1cc(-c2cc(NCCc3cc4ccsc4cc3OC)ncn2)ccc1CC(=O)O` [US11839613, Example 392], the IC50 [1] was 156 nM and the IC50 [2] was 111 nM.

Work on `CCOc1cc(-c2cc(NCCc3ccc4scc(Cl)c4c3)ncn2)ccc1CC(=O)O` [US11839613, Example 431] yielded an IC50 [1] of 460 nM and an IC50 [2] of 43 nM.

`C#Cc1cc2c(cc1CCNc1cc(-c3ccc(C(=O)O)c(OCC)c3)ncn1)OCCO2` [US11839613, Example 439] gave an IC50 [1] of 33 nM and an IC50 [2] of 139 nM.

`COc1cc2c(cc1CCNc1cc(-c3ccc(CC(=O)O)c(OC)c3)ncn1)OCCO2` [US11839613, Example 383] was tested, and the IC50 [1] was 650 nM and the IC50 [2] was 270 nM.

Compound `CCOc1cc2c(cc1CCNc1cc(-c3ccc(C(=O)O)c(CC(C)C)c3)ncn1)OCCO2` [US11839613, Example 417] has an IC50 [1] of 31 nM and an IC50 [2] of 240 nM.

Work on `CCOc1cc2c(cc1CCNc1cc(-c3cc(F)c(CC(=O)O)c(OCC)c3)ncn1)OCCO2` [US11839613, Example 403] yielded an IC50 [1] of 135 nM and an IC50 [2] of 112 nM.

Work on `CCCc1cc(-c2cc(NCCc3c(OC)cc4c(c3C)OCCO4)ncn2)ccc1CC(=O)O` [US11839613, Example 397] yielded an IC50 [1] of 25 nM.

With `CCc1cc(-c2cc(NCCc3c(OC)cc4ccccc4c3C)ncn2)ccc1CC(=O)O` [US11839613, Example 445] the IC50 [1] was 525 nM and the IC50 [2] was 104 nM.

`CCOc1cc(-c2cc(NCCc3cc4ccsc4c(F)c3OC)ncn2)ccc1C(=O)O` [US11839613, Example 404] showed an IC50 [1] of 27 nM and an IC50 [2] of 71 nM.

`CCOc1cc(-c2cc(NCCc3cc(C)c4sccc4c3)ncn2)sc1C(=O)O` [US11839613, Example 391] was tested, and the IC50 [1] was 243 nM and the IC50 [2] was 6 nM.

Compound `CCOc1cc(-c2cc(NCCc3c(OC)cc4c(c3C)OCCO4)ncn2)ccc1CC(=O)O` [US11839613, Example 399] has an IC50 [1] of 40 nM and an IC50 [2] of 48 nM.

`CCc1cc(-c2cc(NCCc3c(OC)cc4ccccc4c3C)ncn2)ccc1C(=O)O` [US11839613, Example 446] gave an IC50 [1] of 160 nM and an IC50 [2] of 98 nM.

In the case of `CCOc1cc2c(cc1CCNc1cc(-c3ccc(CC(=O)O)c(OC(C)C)c3)ncn1)OCCO2` [US11839613, Example 425], the IC50 [1] is reported as 226 nM and the IC50 [2] is reported as 356 nM.

`CCCc1cc(-c2cc(NCCc3cc(F)c4sccc4c3)ncn2)ccc1C(=O)O` [US11839613, Example 389] was tested, and the IC50 [1] was 231 nM and the IC50 [2] was 57 nM.

With `COc1cc2c(c(C)c1CCNc1cc(-c3ccc(CC(=O)O)c(OC(F)(F)F)c3)ncn1)OCCO2` [US11839613, Example 428] the IC50 [2] was 50 nM.

Compound `COc1cc2c(c(C)c1CCNc1cc(-c3ccc(C(=O)O)c(OC(C)C)c3)ncn1)OCCO2` [US11839613, Example 432] has an IC50 [1] of 10 nM and an IC50 [2] of 72 nM.

With `COc1cc(-c2cc(NCCc3c(OC)cc4c(c3C)OCCO4)ncn2)ccc1CC(=O)O` [US11839613, Example 434] the IC50 [2] was 95 nM.

`COc1cc(-c2cc(NCCc3cc(F)c4sccc4c3)ncn2)ccc1OCCC(=O)O` [US11839613, Example 438] showed an IC50 [1] of 708 nM and an IC50 [2] of 29 nM.

For `CCOc1cc(-c2cc(NCCc3c(OC)cc4ccccc4c3F)ncn2)ccc1C(=O)O` [US11839613, Example 101], the IC50 [1] was 102 nM and the IC50 [2] was 35 nM.

`CSc1cc(-c2cc(NCCc3ccc4scc(Cl)c4c3)ncn2)ccc1C(=O)O` [US11839613, Example 429] showed an IC50 [1] of 66 nM and an IC50 [2] of 38 nM.

Work on `CCOc1cc(-c2cc(NCCc3ccc4sccc4c3F)ncn2)cc(F)c1CC(=O)O` [US11839613, Example 375] yielded an IC50 [1] of 294 nM and an IC50 [2] of 66 nM.

In the case of `CCOc1cc(-c2cc(NCCc3c(OC)cc4ccccc4c3C)ncn2)ccc1OCCC(=O)O` [US11839613, Example 423], the IC50 [1] is reported as 230 nM and the IC50 [2] is reported as 6 nM.

Work on `CCOc1cc2c(cc1CCNc1cc(-c3ccc(C(=O)O)c(OC4CC4)c3)ncn1)OCCO2` [US11839613, Example 447] yielded an IC50 [1] of 16 nM.

Work on `CCCc1cc(-c2cc(NCCc3cc4ccsc4cc3OC)ncn2)ccc1C(=O)O` [US11839613, Example 377] yielded an IC50 [1] of 27 nM and an IC50 [2] of 92 nM.

`CCOc1cc(-c2cc(NCCc3cc4c(cc3OC)OCCO4)ncn2)cc(F)c1CC(=O)O` [US11839613, Example 373] gave an IC50 [1] of 286 nM.

`O=C(O)c1ccc(-c2cc(NCCc3cc(F)c4sccc4c3)ncn2)cc1OC1CC1` [US11839613, Example 449] gave an IC50 [1] of 131 nM and an IC50 [2] of 21 nM.

`COc1c(CCNc2cc(-c3ccc(C(=O)O)c(SC)c3)ncn2)cc2ccsc2c1F` [US11839613, Example 405] gave an IC50 [1] of 7 nM and an IC50 [2] of 18 nM.

`CCOc1cc2c(cc1CCNc1cc(-c3ccc(CC(=O)O)c(OC(F)(F)F)c3)ncn1)OCCO2` [US11839613, Example 427] showed an IC50 [2] of 190 nM.

With `COc1cc(-c2cc(NCCc3cc(F)c4sccc4c3)ncn2)ccc1CC(=O)O` [US11839613, Example 475] the IC50 [2] was 114 nM.

`CCCc1cc(-c2cc(NCCc3cc4c(cc3OC)OCCO4)ncn2)ccc1CC(=O)O` [US11839613, Example 387] showed an IC50 [1] of 205 nM.

`CCOc1cc(-c2cc(NCCc3ccc4sccc4c3C)ncn2)cc(F)c1CC(=O)O` [US11839613, Example 372] showed an IC50 [1] of 111 nM.

`COc1cc2c(c(C)c1CCNc1cc(-c3ccc(CC(=O)O)c(OC(C)C)c3)ncn1)OCCO2` [US11839613, Example 426] gave an IC50 [1] of 22 nM.

For `COc1cc2c(cc1CCNc1cc(-c3ccc(CC(=O)O)c(CC(C)C)c3)ncn1)OCCO2` [US11839613, Example 411], the IC50 [1] was 325 nM.

In the case of `COc1cc2c(c(F)c1CCNc1cc(-c3ccc(CC(=O)O)c(OC(F)F)c3)ncn1)OCCO2` [US11839613, Example 442], the IC50 [1] is reported as 224 nM.

`CCOc1cc(-c2cc(NCCc3cc(F)c4sccc4c3)ncn2)sc1C(=O)O` [US11839613, Example 362] was tested, and the IC50 [2] was 1 nM.

For `COc1cc2c(c(C)c1CCNc1cc(-c3ccc(C(=O)O)c(SC)c3)ncn1)OCCO2` [US11839613, Example 400], the IC50 [2] was 37 nM.
